Among the data in ChEMBL document CHEMBL4602602, “Structure-activity relationship (SAR) studies of synthetic glycogen synthase kinase-3β inhibitors: A critical review” (Eur J Med Chem, 2019) are fold change (FC), EC50 and IC50 values, retold here.

Molecules are shown by their SMILES.

T1 sequence (P49841 whole entry): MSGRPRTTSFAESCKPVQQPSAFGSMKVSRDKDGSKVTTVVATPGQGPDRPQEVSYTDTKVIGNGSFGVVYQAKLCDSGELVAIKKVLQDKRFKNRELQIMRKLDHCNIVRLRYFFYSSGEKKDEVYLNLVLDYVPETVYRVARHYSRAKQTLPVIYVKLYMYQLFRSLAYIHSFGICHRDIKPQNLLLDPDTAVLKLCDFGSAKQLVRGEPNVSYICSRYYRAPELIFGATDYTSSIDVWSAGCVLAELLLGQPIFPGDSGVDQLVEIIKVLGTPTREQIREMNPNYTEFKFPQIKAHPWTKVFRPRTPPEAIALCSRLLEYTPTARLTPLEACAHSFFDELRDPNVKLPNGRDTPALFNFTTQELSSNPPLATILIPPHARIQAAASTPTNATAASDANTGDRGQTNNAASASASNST

In the first assay the test system is HEK293. In words: Activation of GSK-3 in HEK293 cells assessed as induction in beta-catenin-LEF/TCF regulated reporter gene transcription at 5 uM relative to control. The note with it: Homo sapiens. The format is cell-based. For orientation: In a reporter assay the amount or activity of a reporter protein is the signal.
On to `Cn1cc(C2=C(c3ccc(Cl)cc3Cl)C(=O)NC2=O)c2ccccc21` [SB-216763], for which the fold change (FC) was 2.5.

Tested on in the next assay: not listed separately
Put plainly: Activation of GSK-3 in HEK293 cells assessed as induction in beta-catenin-LEF/TCF regulated reporter gene transcription. It is filed as cell-based. The note with it: Homo sapiens.
Turning to `Cn1cc(C2=C(c3ccc(Cl)cc3Cl)C(=O)NC2=O)c2ccccc21` [SB-216763], the EC50 (usually the concentration needed to bring the measured effect to its halfway point) amounted to 3.6 µM.

Molecular target in another assay: not listed separately
In words: Inhibition of full length recombinant His-tagged human Glycogen synthase kinase-3 beta expressed in Baculovirus expression system.
Conditions: not given
`O=C1NC(=O)C(c2cn(CCCO)c3ncccc23)=C1c1ccccc1Cl`: the IC50 (as a rule, the concentration needed to halve the response being measured) was 0.01 µM.

As for `CN(C)CCCn1cc(C2=C(c3cccc4ccccc34)C(=O)NC2=O)c2cccnc21`, the IC50 was determined as 0.14 µM.

For `COc1ccccc1C1=C(c2cn(CCCO)c3ncccc23)C(=O)NC1=O`, the IC50 came out at 0.004 µM.

`O=C1NC(=O)C(c2cn(CCCO)c3ncccc23)=C1c1ccccc1C(F)(F)F`: the IC50 turned out to be 0.014 µM.

The next assay concerns the target T1, Glycogen synthase kinase-3 beta (Homo sapiens, UniProt P49841). Put plainly: Inhibition of Glycogen synthase kinase-3 beta in human SH-SY5Y cells after 2 hrs by ELISA. It is filed as cell-based.
Conditions: not given
On the technique in general: An ELISA detects its analyte on a solid surface through an enzyme-linked reagent.
As to `COc1ccc(-c2cc(=O)c3c(OC)c([C@H]4O[C@H](C(=O)N[C@@H](C)C(F)(F)F)[C@@H](O)[C@H](O)[C@H]4O)c(OC)cc3o2)cc1OC`, the IC50 was found to be 0.59 µM.

Regarding `COc1ccc(-c2cc(=O)c3c(OC)c([C@H]4O[C@H](CO)[C@@H](O)[C@H](O)[C@H]4O)c(OC)cc3o2)cc1OC`, inhibition was half-maximal at 239 µM (IC50).

Turning to `COc1ccc(-c2cc(=O)c3c(OC)c([C@H]4O[C@H](C(=O)O)[C@@H](O)[C@H](O)[C@H]4O)c(OC)cc3o2)cc1OC`, the IC50 was determined as 237 µM.

The molecule `COc1ccc(-c2cc(=O)c3c(OC)c([C@H]4O[C@H](C(=O)N[C@H](C)C(F)(F)F)[C@@H](O)[C@H](O)[C@H]4O)c(OC)cc3o2)cc1OC` showed an IC50 of 2.3 µM.

In a further assay the target is T1, Glycogen synthase kinase-3 beta. Put plainly: Inhibition of Glycogen synthase kinase-3 beta (unknown origin) after 30 mins by Kinase-Glo assay.
Conditions: not given
`CN1C(=O)CC(c2ccccc2)N=C1SCc1cn(-c2ccc(C(C)(C)C)cc2)nn1` (stereo not given) gave an IC50 of 1.34 µM.

For the molecule `COc1ccccc1-n1cc(CSC2=NC(c3ccccc3)CC(=O)N2C)nn1` (stereo not given), the IC50 turned out to be 1.31 µM.

In turn, `CN1C(=O)CC(c2ccccc2)N=C1SCc1cn(-c2ccccc2)nn1` (stereo not given) registered an IC50 of 0.916 µM.

As to `Cc1ccc(-n2cc(CSC3=NC(c4ccccc4)CC(=O)N3C)nn2)cc1C` (stereo not given), the IC50 is 0.082 µM.

`CN1C(=O)CC(c2ccccc2)N=C1SCc1cn(-c2ccccc2F)nn1` (stereo not given) had an IC50 of 0.122 µM.

As to `CCc1ccc(-n2cc(CSC3=NC(c4ccccc4)CC(=O)N3C)nn2)cc1` (stereo not given), the IC50 is 0.094 µM.

Molecule `CN1C(=O)CC(c2ccccc2)N=C1SCc1cn(-c2cccc([N+](=O)[O-])c2)nn1` (stereo not given) had an IC50 of 0.153 µM.

The next assay shares this target. In words: Inhibition of full length recombinant His-tagged human Glycogen synthase kinase-3 beta expressed in Baculovirus expression system.
Conditions: not given
On to `NCCCn1cc(C2=C(c3cccc4ccccc34)C(=O)NC2=O)c2cccnc21`, for which the IC50 worked out at 0.031 µM.

A further assay has the same target. Put plainly: Inhibition of Glycogen synthase kinase-3 beta (unknown origin).
Conditions: not given
The molecule `C=CC(=O)Nc1cccc(C2=C(c3cn(C)c4ccc(F)cc34)C(=O)NC2=O)c1` had an IC50 of 0.15 µM.

`COc1ccc(/C=C/C(O)=C/C(=O)/C=C/c2ccc(OCc3ccccc3)cc2)cc1OC` gave an IC50 of 0.9 µM.

The molecule `O=C(CSc1nnc(Cn2c(C(F)(F)F)nc3ccccc32)o1)Nc1ccccc1` came in with an IC50 of 0.13 µM.

As to `COc1ccc(C2=C(Nc3ccc(C(=O)Nc4ccccc4)cc3)C(=O)NC2=O)cc1`, the IC50 was 0.17 µM.

For `COc1ccc(C2=C(Nc3ccc(C(=O)Nc4ccc(Cl)cc4)cc3)C(=O)NC2=O)cc1`, the 50% inhibitory concentration (IC50) stood at 0.19 µM.

`FC(F)(F)c1nc2ccccc2n1Cc1nnc(SCc2cn(-c3ccccc3)nn2)o1` registered an IC50 of 0.32 µM.

`Cc1ccc2[nH]nc(C(=O)NCC3CCN(C(=O)Nc4ccccc4)CC3)c2c1` displayed an IC50 of 0.64 µM.

`CCc1ccc(-n2cc(CSc3nnc(Cn4c(C(F)(F)F)nc5ccccc54)o3)nn2)cc1` gave an IC50 of 0.39 µM.

With `FC(F)(F)c1nc2ccccc2n1Cc1nnc(SCc2cn(-c3cccnc3)nn2)o1`, inhibition was half-maximal at 0.15 µM (IC50).

In the case of `C=CC(=O)Nc1cccc(C2=C(c3cn(C)c4cc(F)ccc34)C(=O)NC2=O)c1`, the IC50 came to 0.199 µM.

As to `C=CC(=O)Nc1cccc(C2=C(c3cn(C(C)C)c4ncccc34)C(=O)NC2=O)c1`, the IC50 stood at 0.034 µM.

Molecule `CC(C)n1cc(C2=C(c3cccc(NC(=O)CF)c3)C(=O)NC2=O)c2cccnc21` displayed an IC50 of 0.017 µM.

Turning to `COc1ccc(NC(=O)c2ccc(NC3=C(c4ccccc4)C(=O)NC3=O)cc2)cc1`, the IC50 was 0.12 µM.

With `Fc1ccccc1-n1cc(CSc2nnc(Cn3c(C(F)(F)F)nc4ccccc43)o2)nn1`, half-maximal inhibition (IC50) was put at 0.27 µM.

Regarding `C=CC(=O)Nc1cccc(C2=C(c3cn(C)c4cc(OC)ccc34)C(=O)NC2=O)c1`, the IC50 came to 0.69 µM.

As to `O=C(CSc1nnc(Cn2c(C(F)(F)F)nc3ccccc32)o1)Nc1ccc(F)cc1`, the IC50 came to 0.2 µM.

The molecule `COc1ccc(NC(=O)c2ccc(NC3=C(c4ccc(OC)cc4)C(=O)NC3=O)cc2)cc1` displayed an IC50 of 0.09 µM.
